This is an account of results in patent US11254663B2 (BRISTOL-MYERS SQUIBB COMPANY, priority 2019, dated 2022).

Structures are written as SMILES.

Chain of FXR (Q96RI1 262-486): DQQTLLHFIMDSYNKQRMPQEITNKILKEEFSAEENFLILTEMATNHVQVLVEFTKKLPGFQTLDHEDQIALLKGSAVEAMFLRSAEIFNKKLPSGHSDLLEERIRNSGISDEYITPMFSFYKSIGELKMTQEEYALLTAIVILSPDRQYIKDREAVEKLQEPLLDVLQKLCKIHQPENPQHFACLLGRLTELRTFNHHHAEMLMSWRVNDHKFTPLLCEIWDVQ

The first test has as its target FXR (Homo sapiens (Human), UniProt Q96RI1). As to the kind of experiment: transient human FXR/Gal4-luciferase reporter assay. The format is cell-based.
Conditions: not given
A digest of the protocol: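 HEK293 cells stably carrying a 5×Gal4 response element–firefly luciferase reporter were transiently transfected overnight with a Gal4 DBD–human FXR LBD fusion plasmid. Compound was added in DMSO and cells were incubated overnight at 37 °C, 5% CO2. Activity was read as Steady-Glo luminescence.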
(In general: A reporter such as luciferase makes a cellular process visible.)
One may read the EC50 as the concentration that produces a half-maximal response. `CCOc1cnc(-c2ccnc(N(CC34CCC(c5noc(C(C)(C)C)n5)(CC3)CC4)C(=O)C34CC(F)(C3)C4)c2)nc1` [Example 542, N-((4-(5-(tert-butyl)-1,2,4-oxadiazol-3-yl)bicyclo[2.2.2]octan-1-yl)methyl)-N-(4-(5-ethoxypyrimidin-2-yl)pyridin-2-yl)-3-fluorobicyclo[1.1.1]pentane-1-carboxamide] gave a half-maximal effective concentration (EC50) of 22 nM.

The compound `CCOc1ncc(-c2cccc(N(CC34CCC(c5nc(C(C)(C)C)no5)(CC3)CC4)C(=O)C34CC(NC(=O)OC(C)(C)C)(C3)C4)c2)cn1` [Example 505, tert-butyl (3-(((4-(3-(tert-butyl)-1,2,4-oxadiazol-5-yl)bicyclo[2.2.2]octan-1-yl)methyl) (3-(2-ethoxypyrimidin-5-yl)phenyl)carbamoyl)bicyclo[1.1.1]pentan-1-yl)carbamate] returned an EC50 of 621 nM.

The same test, now with this note: Gal4-hFXR fusion construct, HEK293 reporter cells; response relative to 8 μM GW-4064.
As to `CC(=O)Nc1cn2nc(-c3cccc(N(CC45CCC(c6nc(C7CC7)no6)(CC4)CC5)C(=O)C45CC(F)(C4)C5)c3)ccc2n1` [Example 336, N-(3-(2-acetamidoimidazo[1,2-b]pyridazin-6-yl)phenyl)-N-((4-(3-cyclopropyl-1,2,4-oxadiazol-5-yl)bicyclo[2.2.2]octan-1-yl)methyl)-3-fluorobicyclo[1.1.1]pentane-1-carboxamide], the EC50 worked out at 1230 nM.

`COc1ccc(-c2cccc(N(CC34CCC(c5cc(C6CC6)n(C)n5)(CC3)CC4)C(=O)C34CC(F)(C3)C4)c2)cc1` [Example 408, N-((4-(5-cyclopropyl-1-methyl-1H-pyrazol-3-yl)bicyclo[2.2.2]octan-1-yl)methyl)-3-fluoro-N-(4′-methoxy-[1,1′-biphenyl]-3-yl)bicyclo[1.1.1]pentane-1-carboxamide] gave a concentration for a half-maximal effect (EC50) of 160 nM.

`CC(C)Oc1ccc(-c2cccc(N(CC34CCC(c5noc(C(C)(C)F)n5)(CC3)CC4)C(=O)OC3(C(F)(F)F)COC3)c2)cc1` [Example 632, 3-(trifluoromethyl)oxetan-3-yl ((4-(5-(2-fluoropropan-2-yl)-1,2,4-oxadiazol-3-yl)bicyclo[2.2.2]octan-1-yl)methyl)(4′-isopropoxy-[1,1′-biphenyl]-3-yl)carbamate]: the EC50 turned out to be 222 nM.

Compound `CC(C)(C)c1noc(C23CCC(CN(C(=O)C45CC(F)(C4)C5)c4cccc(-c5ncc(OC(F)F)cn5)c4)(CC2)CC3)n1` [Example 371, N-((4-(3-(tert-butyl)-1,2,4-oxadiazol-5-yl)bicyclo[2.2.2]octan-1-yl)methyl)-N-(3-(5-(difluoromethoxy)pyrimidin-2-yl)phenyl)-3-fluorobicyclo[1.1.1]pentane-1-carboxamide] yielded an EC50 of 45 nM.

Consider `CC(C)(C)NC(=O)N(CC12CCC(c3noc(C(F)(F)F)n3)(CC1)CC2)c1cccc(-c2ccc(C(C)(C)OC(F)F)cc2)c1` [Example 613, 3-(tert-butyl)-1-(4′-(2-(difluoromethoxy)propan-2-yl)-[1,1′-biphenyl]-3-yl)-1-((4-(5-(trifluoromethyl)-1,2,4-oxadiazol-3-yl)bicyclo[2.2.2]octan-1-yl)methyl)urea], for which the EC50 amounted to 79 nM.

`Cc1ccc(-c2cccc(N(CC34CCC(c5nc(C6CC6)no5)(CC3)CC4)C(=O)C34CC(F)(C3)C4)c2)nn1` [Example 295, N-((4-(3-cyclopropyl-1,2,4-oxadiazol-5-yl)bicyclo[2.2.2]octan-1-yl)methyl)-3-fluoro-N-(3-(6-methylpyridazin-3-yl)phenyl)bicyclo[1.1.1]pentane-1-carboxamide] gave an EC50 of 839 nM.

On to `CC(C)(OC(=O)N(CC12CCC(c3noc(C4(F)CC4)n3)(CC1)CC2)c1cc(-c2ccc(OC(F)F)cc2)ccn1)C(F)(F)F` [Example 624, 1,1,1-trifluoro-2-methylpropan-2-yl(4-(4-(difluoromethoxy)phenyl)pyridin-2-yl)((4-(5-(1-fluorocyclopropyl)-1,2,4-oxadiazol-3-yl)bicyclo[2.2.2]octan-1-yl)methyl)carbamate], for which a half-maximal response (EC50) required 50 nM.

In the case of `CC(C)(C)c1nc(C23CCC(CN(C(=O)C45CC(F)(C4)C5)c4cccc(-c5ccc(NS(C)(=O)=O)cc5)c4)(CC2)CC3)no1` [Example 438, N-((4-(5-(tert-butyl)-1,2,4-oxadiazol-3-yl)bicyclo[2.2.2]octan-1-yl)methyl)-3-fluoro-N-(4′-(methylsulfonamido)-[1,1′-biphenyl]-3-yl)bicyclo[1.1.1]pentane-1-carboxamide], the EC50 is 46 nM.

In turn, `O=C(N(CC12CCC(c3nc(C4CC4)no3)(CC1)CC2)c1cccc(-c2ccc(C(F)(F)F)cc2)c1)C12CC(F)(C1)C2` [Example 253, N-((4-(3-cyclopropyl-1,2,4-oxadiazol-5-yl)bicyclo[2.2.2]octan-1-yl)methyl)-3-fluoro-N-(4′-(trifluoromethyl)-[1,1′-biphenyl]-3-yl)bicyclo[1.1.1]pentane-1-carboxamide] yielded an EC50 of 250 nM.

The compound `CC(C)(C)c1nc(C23CCC(CN(C(=O)C45CC(F)(C4)C5)c4cncc(-c5ncc(OC(F)F)cn5)c4)(CC2)CC3)no1` [Example 485, N-((4-(5-(tert-butyl)-1,2,4-oxadiazol-3-yl)bicyclo[2.2.2]octan-1-yl)methyl)-N-(5-(5-(difluoromethoxy)pyrimidin-2-yl)pyridin-3-yl)-3-fluorobicyclo[1.1.1]pentane-1-carboxamide] yielded an EC50 of 41 nM.

Regarding `O=C(NC12CCC(CN(C(=O)C3CC(O)(C(F)(F)F)C3)c3cccc(-c4ccc(OC(F)F)cc4)c3)(CC1)CC2)c1ccc(F)cc1` (stereo not drawn) [Example 637, N-(4-(((cis)-N-(4′-(difluoromethoxy)-[1,1′-biphenyl]-3-yl)-3-hydroxy-3-(trifluoromethyl)cyclobutane-1-carboxamido)methyl)bicyclo[2.2.2]octan-1-yl)-4-fluorobenzamide], a half-maximal response (EC50) required 384 nM.

Consider `CC(C)(C)c1nc(C23CCC(CN(C(=O)C45CC(F)(C4)C5)c4cccc(-c5ccc(C(F)(F)F)cc5)c4)(CC2)CC3)no1` [Example 445, N-((4-(5-(tert-butyl)-1,2,4-oxadiazol-3-yl)bicyclo[2.2.2]octan-1-yl)methyl)-3-fluoro-N-(4′-(trifluoromethyl)-[1,1′-biphenyl]-3-yl)bicyclo[1.1.1]pentane-1-carboxamide], for which the EC50 was 719 nM.

Compound `CC(C)(C)c1nc(C23CCC(CN(C(=O)C45CC(F)(C4)C5)c4cccc(-c5ccc(OC(F)F)cn5)c4)(CC2)CC3)no1` [Example 455, N-((4-(5-(tert-butyl)-1,2,4-oxadiazol-3-yl)bicyclo[2.2.2]octan-1-yl)methyl)-N-(3-(5-(difluoromethoxy)pyridin-2-yl)phenyl)-3-fluorobicyclo[1.1.1]pentane-1-carboxamide] had an EC50 of 17 nM.

As for `CCOc1ccc(-c2cccc(N(CC34CCC(c5noc(C6(C(F)(F)F)CC6)n5)(CC3)CC4)C(=O)C34CC(F)(C3)C4)c2)cc1` [Example 521, N-(4′-ethoxy-[1,1′-biphenyl]-3-yl)-3-fluoro-N-((4-(5-(1-(trifluoromethyl)cyclopropyl)-1,2,4-oxadiazol-3-yl)bicyclo[2.2.2]octan-1-yl)methyl)bicyclo[1.1.1]pentane-1-carboxamide], it took 112 nM to reach a half-maximal effect (EC50).

In turn, `CC(F)(F)c1nc(C23CCC(CN(C(=O)C4CC(O)(C(F)(F)F)C4)c4cccc(-c5ccc(C(O)C(F)F)cc5)c4)(CC2)CC3)no1` (single isomer, unassigned) [Example 628 (second eluting isomer)] had an EC50 of 128 nM.

In the case of `N#Cc1ccc(-c2cccc(N(CC34CCC(c5nc(C6CC6)no5)(CC3)CC4)C(=O)C34CC(F)(C3)C4)c2)c2cccnc12` [Example 311, N-(3-(8-cyanoquinolin-5-yl)phenyl)-N-((4-(3-cyclopropyl-1,2,4-oxadiazol-5-yl)bicyclo[2.2.2]octan-1-yl)methyl)-3-fluorobicyclo[1.1.1]pentane-1-carboxamide], the EC50 came to 662 nM.

Compound `CC(C)(O)c1ccc(-c2ccnc(N(CC34CCC(c5noc(C(C)(C)F)n5)(CC3)CC4)C(=O)OC(C)(C)C(F)(F)F)c2)cc1` [Example 634, 1,1,1-trifluoro-2-methylpropan-2-yl((4-(5-(2-fluoropropan-2-yl)-1,2,4-oxadiazol-3-yl)bicyclo[2.2.2]octan-1-yl)methyl)(4-(4-(2-hydroxypropan-2-yl)phenyl)pyridin-2-yl) carbamate] registered an EC50 of 31 nM.

As for `CC(C)(O)c1ccc(-c2cc(N(CC34CCC(c5nc(C6CC6)no5)(CC3)CC4)C(=O)OC(C)(C)C(F)(F)F)ncc2F)cc1F` [Example 618, 1,1,1-trifluoro-2-methylpropan-2-yl((4-(3-cyclopropyl-1,2,4-oxadiazol-5-yl)bicyclo[2.2.2]octan-1-yl)methyl)(5-fluoro-4-(3-fluoro-4-(2-hydroxypropan-2-yl)phenyl)pyridin-2-yl) carbamate], the midpoint of the response, the EC50, lay at 49 nM.

As for `CCOc1ccc(-c2cccc(N(CC34CCC(c5nc(C6CC6)no5)(CC3)CC4)C(=O)C34CC(F)(C3)C4)c2)cc1` [Example 290, N-((4-(3-cyclopropyl-1,2,4-oxadiazol-5-yl)bicyclo[2.2.2]octan-1-yl)methyl)-N-(4′-ethoxy-[1,1′-biphenyl]-3-yl)-3-fluorobicyclo[1.1.1]pentane-1-carboxamide], the response was half-maximal at 60 nM (EC50).

`Cc1nc2cc(-c3cccc(N(CC45CCC(c6nc(C7CC7)no6)(CC4)CC5)C(=O)C45CC(F)(C4)C5)c3)ccc2o1` [Example 305, N-((4-(3-cyclopropyl-1,2,4-oxadiazol-5-yl)bicyclo[2.2.2]octan-1-yl)methyl)-3-fluoro-N-(3-(2-methylbenzo[d]oxazol-5-yl)phenyl)bicyclo[1.1.1]pentane-1-carboxamide] showed an EC50 of 301 nM.

As to `CC(C)(C)c1nc(C23CCC(CN(C(=O)C45CC(F)(C4)C5)c4cncc(-c5ccc(OC(F)F)cn5)c4)(CC2)CC3)no1` [Example 486, N-((4-(5-(tert-butyl)-1,2,4-oxadiazol-3-yl)bicyclo[2.2.2]octan-1-yl)methyl)-N-(5-(difluoromethoxy)-[2,3′-bipyridin]-5′-yl)-3-fluorobicyclo[1.1.1]pentane-1-carboxamide], the response was half-maximal at 89 nM (EC50).
